ChEMBL document CHEMBL5046315, “CRCM5484: A BET-BDII Selective Compound with Differential Anti-leukemic Drug Modulation” (J Med Chem, 2022)
Calls of active or inactive are those of the source. The rule behind the calls is not given here.

Experiments:
Assay type in all cases: functional, cell-based
MOLM-14 [1] = assay: Potentiation of everolimus-induced antileukemic activity against human MOLM-14 cells at 4.3 uM in presence of bone-marrow derived stromal cell-conditioned medium
CCRF-CEM [2] = assay: Potentiation of imatinib-induced antileukemic activity against human CCRF-CEM cells at 4.3 uM in presence of bone-marrow derived stromal cell-conditioned medium
CCRF-CEM [3] = assay: Potentiation of prima1-induced antileukemic activity against human CCRF-CEM cells at 4.3 uM in presence of bone-marrow derived stromal cell-conditioned medium
CCRF-CEM [4] = assay: Potentiation of VX680-induced antileukemic activity against human CCRF-CEM cells at 4.3 uM in presence of bone-marrow derived stromal cell-conditioned medium
U-937 [5] = assay: Potentiation of OTX015-induced antileukemic activity against human U-937 cells at 4.3 uM in presence of bone-marrow derived stromal cell-conditioned medium
U-937 [6] = assay: Potentiation of afatinib-induced antileukemic activity against human U-937 cells at 4.3 uM in presence of bone-marrow derived stromal cell-conditioned medium
MOLM-14 [7] = assay: Potentiation of JQ1-induced antileukemic activity against human MOLM-14 cells at 4.3 uM in presence of bone-marrow derived stromal cell-conditioned medium
U-937 [8] = assay: Potentiation of SGI-1776-induced antileukemic activity against human U-937 cells at 4.3 uM in presence of bone-marrow derived stromal cell-conditioned medium
MOLM-14 [9] = assay: Potentiation of alisertib-induced antileukemic activity against human MOLM-14 cells at 4.3 uM in presence of bone-marrow derived stromal cell-conditioned medium
MOLM-14 [10] = assay: Potentiation of SGI-1027-induced antileukemic activity against human MOLM-14 cells at 4.3 uM in presence of bone-marrow derived stromal cell-conditioned medium
U-937 [11] = assay: Potentiation of luminespid-induced antileukemic activity against human U-937 cells at 4.3 uM in presence of bone-marrow derived stromal cell-conditioned medium
CCRF-CEM [12] = assay: Potentiation of afatinib-induced antileukemic activity against human CCRF-CEM cells at 4.3 uM in presence of bone-marrow derived stromal cell-conditioned medium
U-937 [13] = assay: Potentiation of tretinoin-induced antileukemic activity against human U-937 cells at 4.3 uM in presence of bone-marrow derived stromal cell-conditioned medium
CCRF-CEM [14] = assay: Potentiation of JQ1-induced antileukemic activity against human CCRF-CEM cells at 4.3 uM in presence of bone-marrow derived stromal cell-conditioned medium
U-937 [15] = assay: Potentiation of vincristine-induced antileukemic activity against human U-937 cells at 4.3 uM in presence of bone-marrow derived stromal cell-conditioned medium
MOLM-14 [16] = assay: Potentiation of hydroxychloroquine-induced antileukemic activity against human MOLM-14 cells at 4.3 uM in presence of bone-marrow derived stromal cell-conditioned medium
MOLM-14 [17] = assay: Potentiation of dasatinib-induced antileukemic activity against human MOLM-14 cells at 4.3 uM in presence of bone-marrow derived stromal cell-conditioned medium
CCRF-CEM [18] = assay: Potentiation of dasatinib-induced antileukemic activity against human CCRF-CEM cells at 4.3 uM in presence of bone-marrow derived stromal cell-conditioned medium
CCRF-CEM [19] = assay: Potentiation of SGI-1776-induced antileukemic activity against human CCRF-CEM cells at 4.3 uM in presence of bone-marrow derived stromal cell-conditioned medium
CCRF-CEM [20] = assay: Potentiation of selinexor-induced antileukemic activity against human CCRF-CEM cells at 4.3 uM in presence of bone-marrow derived stromal cell-conditioned medium
CCRF-CEM [21] = assay: Potentiation of tretinoin-induced antileukemic activity against human CCRF-CEM cells at 4.3 uM in presence of bone-marrow derived stromal cell-conditioned medium
CCRF-CEM [22] = assay: Potentiation of bortezomib-induced antileukemic activity against human CCRF-CEM cells at 4.3 uM in presence of bone-marrow derived stromal cell-conditioned medium
CCRF-CEM [23] = assay: Cytotoxicity against human CCRF-CEM cells assessed as reduction in cell viability incubated for 72 hrs
U-937 [24] = assay: Potentiation of AraC-induced antileukemic activity against human U-937 cells at 4.3 uM in presence of bone-marrow derived stromal cell-conditioned medium
CCRF-CEM [25] = assay: Potentiation of idelalisib-induced antileukemic activity against human CCRF-CEM cells at 4.3 uM in presence of bone-marrow derived stromal cell-conditioned medium
CCRF-CEM [26] = assay: Potentiation of arsenic-induced antileukemic activity against human CCRF-CEM cells at 4.3 uM in presence of bone-marrow derived stromal cell-conditioned medium
MOLM-14 [27] = assay: Potentiation of quizartinib-induced antileukemic activity against human MOLM-14 cells at 4.3 uM in presence of bone-marrow derived stromal cell-conditioned medium
MOLM-14 [28] = assay: Potentiation of panobinostat-induced antileukemic activity against human MOLM-14 cells at 4.3 uM in presence of bone-marrow derived stromal cell-conditioned medium
CCRF-CEM [29] = assay: Potentiation of quizartinib-induced antileukemic activity against human CCRF-CEM cells at 4.3 uM in presence of bone-marrow derived stromal cell-conditioned medium
[30] = system: Acute myeloid leukemic cell; assay: Potentiation of vorinostat-induced antileukemic activity against patient derived mouse xenografted acute myeloid leukemic cells assessed as cell viability at 0.16 to 10 uM in absence of bone-marrow derived stromal cell-conditioned medium measured after 72 to 144 hrs by cell-titre glo luminescent assay; conditions: Homo sapiens, dose 0.16-10 µM, time lower […], time upper 144.0 hrs
U-937 [31] = assay: Potentiation of olaparid-induced antileukemic activity against human U-937 cells at 4.3 uM in presence of bone-marrow derived stromal cell-conditioned medium
U-937 [32] = assay: Potentiation of decitabine-induced antileukemic activity against human U-937 cells at 4.3 uM in presence of bone-marrow derived stromal cell-conditioned medium
CCRF-CEM [33] = assay: Potentiation of erlotinib-induced antileukemic activity against human CCRF-CEM cells at 4.3 uM in presence of bone-marrow derived stromal cell-conditioned medium
CCRF-CEM [34] = assay: Potentiation of OTX015-induced antileukemic activity against human CCRF-CEM cells at 4.3 uM in presence of bone-marrow derived stromal cell-conditioned medium
CCRF-CEM [35] = assay: Potentiation of volasertib-induced antileukemic activity against human CCRF-CEM cells at 4.3 uM in presence of bone-marrow derived stromal cell-conditioned medium
CCRF-CEM [36] = assay: Potentiation of BKM120-induced antileukemic activity against human CCRF-CEM cells at 4.3 uM in presence of bone-marrow derived stromal cell-conditioned medium
MOLM-14 [37] = assay: Potentiation of 17AAG-induced antileukemic activity against human MOLM-14 cells at 4.3 uM in presence of bone-marrow derived stromal cell-conditioned medium
MOLM-14 [38] = assay: Potentiation of gileritinib-induced antileukemic activity against human MOLM-14 cells at 4.3 uM in presence of bone-marrow derived stromal cell-conditioned medium
CCRF-CEM [39] = assay: Potentiation of sunitinib-induced antileukemic activity against human CCRF-CEM cells at 4.3 uM in presence of bone-marrow derived stromal cell-conditioned medium
CCRF-CEM [40] = assay: Potentiation of hydroxychloroquine-induced antileukemic activity against human CCRF-CEM cells at 4.3 uM in presence of bone-marrow derived stromal cell-conditioned medium
U-937 [41] = assay: Potentiation of bortezomib-induced antileukemic activity against human U-937 cells at 4.3 uM in presence of bone-marrow derived stromal cell-conditioned medium

With `CC(=O)N1CCc2c(sc3nc(SCC(=O)Nc4cccnc4C)n(Cc4ccco4)c(=O)c23)C1` the Activity (MOLM-14 [1]) was “inactive”, the Activity (CCRF-CEM [2]) was “inactive” and the Activity (CCRF-CEM [3]) was “inactive”. For the same compound, the Activity (CCRF-CEM [4]) was “inactive”, the Activity (U-937 [5]) was “inactive” and the Activity (U-937 [6]) was “inactive”. For the same compound, the Activity (MOLM-14 [7]) was “inactive”, the Activity (U-937 [8]) was “inactive” and the Activity (MOLM-14 [9]) was “inactive”. For the same compound, the Activity (MOLM-14 [10]) was “inactive”, the Activity (U-937 [11]) was “inactive” and the Activity (CCRF-CEM [12]) was “inactive”. For the same compound, the Activity (U-937 [13]) was “inactive”, the Activity (CCRF-CEM [14]) was “inactive” and the Activity (U-937 [15]) was “inactive”. For the same compound, the Activity (MOLM-14 [16]) was “inactive”, the Activity (MOLM-14 [17]) was “inactive” and the Activity (CCRF-CEM [18]) was “inactive”. For the same compound, the Activity (CCRF-CEM [19]) was “inactive”, the Activity (CCRF-CEM [20]) was “inactive” and the Activity (CCRF-CEM [21]) was “inactive”. For the same compound, the Activity (CCRF-CEM [22]) was “inactive”, the EC50 (CCRF-CEM [23]) was > 5 µM and the Activity (U-937 [24]) was “inactive”. The Activity (CCRF-CEM [25]) was “inactive”, the Activity (CCRF-CEM [26]) was “inactive” and the Activity (MOLM-14 [27]) was “inactive”. For the same compound, the Activity (MOLM-14 [28]) was “inactive”, the Activity (CCRF-CEM [29]) was “inactive” and the Activity [30] was “inactive”. The Activity (U-937 [31]) was “inactive”, the Activity (U-937 [32]) was “inactive” and the Activity (CCRF-CEM [33]) was “inactive”. The Activity (CCRF-CEM [34]) was “inactive”, the Activity (CCRF-CEM [35]) was “inactive” and the Activity (CCRF-CEM [36]) was “inactive”. For the same compound, the Activity (MOLM-14 [37]) was “inactive”, the Activity (MOLM-14 [38]) was “inactive” and the Activity (CCRF-CEM [39]) was “inactive”. For the same compound, the Activity (CCRF-CEM [40]) was “inactive” and the Activity (U-937 [41]) was “inactive”.
